According to patent publication US20110009394A1, “TRICYCLIC NITROGEN COMPOUNDS AND THEIR USE AS ANTIBACTERIAL AGENTS” (Glaxo Group Limited, priority 2008, published 2011):
Counter-ions that a name gives are not always drawn. Like-named read-outs stand apart in the source and are kept apart here.

Test system: Mycobacterium tuberculosis H37Rv
Test: Mycobacterium tuberculosis H37Rv Inhibition Assay
Assay type: cell-based
Conditions: ATCC 25618 / H37Rv, read-out: MIC value

SMILES	MIC [µg/mL]	MIC (H37Rv strain (ATCC25618), Middlebrook 7H9+ADC, resazurin fluorescence) [µg/mL]
N#Cc1cc(CNC2CCN(C[C@@H]3CCn4c(=O)cnc5ccc(=O)n3c54)CC2)cc2c1OCCO2 [Example 15, 7-{[(1-{[(6S)-3,7-Dioxo-5,6-dihydro-3H,4H,7H-1,3a,6a-triazaphenalen-6-yl]methyl}-4-piperidinyl)amino]methyl}-2,3-dihydro-1,4-benzodioxin-5-carbonitrile dihydrochloride]	< 4	–
O=C1CSc2ccc(CNC3CCN(CC4CCn5c(=O)cnc6ccc(=O)n4c65)CC3)nc2N1 (stereo not drawn) [Example 4, 6-[(4-{[(3-oxo-3,4-dihydro-2H-pyrido[3,2-b][1,4]thiazin-6-yl)methyl]amino}-1-piperidinyl)methyl]-5,6-dihydro-3H,4H,7H-1,3a,6a-triazaphenalene-3,7-dione dihydrochloride]	< 400	–
O=c1ccc2ncc(=O)n3c2n1CC[C@H]3CN1CCC(NCc2cc3c(cn2)OCCS3)CC1 [Example 9, (4S)-4-({4-[(2,3-Dihydro[1,4]oxathiino[2,3-c]pyridin-7-ylmethyl)amino]-1-piperidinyl}methyl)-5,6-dihydro-3H,4H,7H-1,3a,6a-triazaphenalene-3,7-dione dihydrochloride]	> 4	–
O=c1cnc2ccc(=O)n3c2n1CCC3CN1CCC(NCc2cc3c(cn2)OCS3)CC1 (stereo not drawn) [Example 2, 6-({4-[([1,3]Oxathiolo[5,4-c]pyridin-6-ylmethyl)amino]-1-piperidinyl}methyl)-5,6-dihydro-3H,4H,7H-1,3a,6a-triazaphenalene-3,7-dione dihydrochloride]	> 4	–
O=c1ccc2ccc(=O)n3c2n1CCC3CN1CCC(NCc2cc3c(cn2)OCS3)CC1 (stereo not drawn) [Example 11, 5-({4-[([1,3]Oxathiolo[5,4-c]pyridin-6-ylmethyl)amino]-1-piperidinyl}methyl)-6,7-dihydro-3H,5H,9H-pyrimido[1,2,3-ij]-1,8-naphthyridine-3,9-dione dihydrochloride]	< 4	–
Cl.O=c1cnc2ccc(=O)n3c2n1CC[C@H]3CN1CCC(NCc2ccc3c(c2)OCCO3)CC1 [Example 17B, (6S)-6-({4-[(2,3-Dihydro-1,4-benzodioxin-6-ylmethyl)amino]-1-piperidinyl}methyl)-5,6-dihydro-3H,4H,7H-1,3a,6a-triazaphenalene-3,7-dione hydrochloride]	–	< 4
O=c1ccc2ncc(=O)n3c2n1CCC3CN1CCC(NCc2cc3c(cn2)OCS3)CC1 (stereo not drawn) [Example 8, 4-({4-[([1,3]Oxathiolo[5,4-c]pyridin-6-ylmethyl)amino]-1-piperidinyl}methyl)-5,6-dihydro-3H,4H,7H-1,3a,6a-triazaphenalene-3,7-dione dihydrochloride]	> 4	–
O=c1cnc2ccc(=O)n3c2n1CC[C@H]3CN1CCC(NCc2cc3c(cc2F)OCCO3)CC1 [Example 16, (6S)-6-[(4-{[(7-Fluoro-2,3-dihydro-1,4-benzodioxin-6-yl)methyl]amino}-1-piperidinyl)methyl]-5,6-dihydro-3H,4H,7H-1,3a,6a-triazaphenalene-3,7-dione dihydrochloride]	> 4	–
O=c1cnc2ccc(=O)n3c2n1CCC3CN1CCC(NCc2cc3c(cn2)OCCO3)CC1 (stereo not drawn) [Example 1, 6-([4-[(2,3-Dihydro[1,4]dioxino[2,3-c]pyridin-7-ylmethyl)amino]-1-piperidinyl]methyl)-5,6-dihydro-3H,4H,7H-1,3a,6a-triazaphenalene-3,7-dione dihydrochloride]	> 4	–
